5 compounds from PMC9785441, “A Broad Spectrum Antiparasitic Activity of Organotin (IV) Derivatives and Its Untargeted Proteomic Profiling Using Leishmania donovani” (Pathogens, 2022) can be followed below.

For one assay, the system named is S. mansoni, adult worm. As to the kind of experiment: S. mansoni adult worm ex vivo phenotypic screen (severity score). The assay is classed as cell-based, Schistosoma mansoni. The note with it: after 24 h; tested at 10, 5, 2.5 and 1.25 µM; EC50. An excerpt: The Naval Medical Research Institute (NMRI) isolate of S. mansoni was used. The parasite was cycled between Biomphalaria glabrata snails and male Golden Syrian hamsters (infected at 4–6 weeks of age) as intermediate and definitive hosts, respectively. Hamsters were infected and maintained in accordance with protocols approved by the Institutional Animal Care and Use Committee (IACUC) at the University of California San Diego. The acquisition, preparation and in vitro maintenance of S. mansoni have been described. Briefly, adult worms were harvested from hamsters 42 days post-infection in RPMI or DMEM, and washed five times prior to maintenance overnight at 37 °C and 5% CO2 in Basch medium containing 4% heat-inactivated FBS, 100 µg/mL streptomycin and 100 U/mL penicillin.
Ex vivo screens with adults employed 24-well flat-bottomed plates and approximately 5 males and 2–3 females/well. The complex and often dynamic phenotypic responses that the schistosome parasite is capable of were observed using a Zeiss Axiovert A1 inverted microscope at 24 h. Observations were classified using a constrained nomenclature that involves simple “descriptors” to convey changes in shape, motility and appearance, and the inability of the male worm to adhere to the bottom of the well, compared to DMSO controls. Each descriptor was given a value of 1 and these were added up to yield a “severity score” with a maximum of 4. Evidence of degeneracy or death was awarded a value of 4 as was damage to the tegument (parasite’s surface) on the understanding this would compromise survival in vivo. […] Data were averaged across two experiments for each compound concentration tested.

Assay [1] concerns T. cruzi (infecting C2C12). As to the kind of experiment: T. cruzi intracellular amastigote assay in C2C12 cells (high content imaging). The assay is classed as cell-based, Trypanosoma cruzi. To be noted: Trypanosoma cruzi, C2C12, 72 h, read-out: EC50 T. cruzi (infecting C2C12). The method, then:
Mouse C2C12 myoblasts (ATCC CRL-1772) were cultivated in RPMI 1640 medium supplemented with 5% FBS and kept at 37 °C and 5% CO2. T. cruzi CAI-72 trypomastigotes were obtained from the supernatant of C2C12 cells infected four to seven days previously. For the assay, 500 C2C12 cells were mixed with 7500 T. cruzi parasites and seeded into 384-well plates at a 50 µL final volume. Test compounds and reference drugs (Benznidazole and K11777) were pre-spotted into the 384 well black bottom plates prior to the addition of cells and parasites with final assay concentration of 20 µM to 0.02 µM. The plates were incubated at 37 °C^, 5% CO2 for 72 h. Cultures were then fixed with 4% formaldehyde and 0.5 µg/mL DAPI (diamidino-2-phenylindole) was added for staining nucleic acids. Plates were kept protected from light for 1 h and then imaged in an ImageXpress Micro XLS automated high content imager (Molecular Devices, San Jose, CA, USA). Imaging and data analysis were performed as described for L. donovani amastigotes on biological triplicates.

The subject of assay [2] is N. fowleri (KUL strain) trophozoites. Kind of assay: N. fowleri trophozoite viability assay (CellTiter-Glo). The assay is classed as cell-based, Naegleria fowleri. The note with it: Naegleria fowleri, 48 h. As to the method:
N. fowleri (KUL strain) was cultured in Nelson’s medium supplemented with 10% FBS and kept at 37 °C. For all experiments, trophozoites were harvested during the logarithmic phase of growth. Test compounds were serially diluted and transferred to a white solid bottomed 96-well tissue culture plate (E&K Scientific, Swedesboro, NJ, USA) followed by addition of 10,000 N. fowleri trophozoites in Nelson’s medium in a final volume of 100 µL and a final concentration of compounds ranging from 50 to 0.39 µM. Amphotericin B was used as positive control and assay plates were incubated for 48 h at 37 °C. Parasite viability was measured as described for E. histolytica and G. lamblia. EC50 values were obtained using the GraphPad Prism 9 Software.
(In general: Cellular ATP, detected with luciferase, serves as a proxy for viable cell number.)

Assay [3] has as its system L. donovani promastigotes. Kind of assay: L. donovani promastigote viability assay (resazurin). The assay is classed as cell-based, Leishmania donovani. To be noted: Leishmania donovani; Figure S1 dose response curves, RFU; read-out: IC50 against the promastigotes of L. donovani. As to the method: Promastigotes of L. donovani from late log phase culture were diluted to 2.0 × 10^6/mL in M-199 containing 10% FBS, 25 mM HEPES (Gibco 15630-080), 100 µM adenine, 12 mM NaHCO3, 10 µM folic acid, 1% penicillin/streptomycin (Gibco 15140-122) as described previously. Compounds and controls were transferred from compound plates to 384 well assay plates with the use of an acoustic transfer system (ATS, EDC Biosystems, Fremont, CA, USA). Promastigotes were incubated with compounds at 29 °C for 48 h. To measure parasite viability, resazurin sodium salt (7-hydroxy-3H-phenoxazin3-one 10-oxide) was dissolved in PBS and added to each well at a volume of 5 µL (final concentration of 44 µM). After incubating for 4 h at room temperature, fluorescence (ex 571 nm/em 584 nm) was recorded with an Envision (Perkin Elmer, Waltham, MA, USA) microplate fluorescence/luminescence reader. […] For positive and negative control amphotericin B and 0.5% DMSO was used, respectively. Dose response and EC50 analyses were obtained using GraphPad Prism 9 Software (Graph Pad Software Inc., San Diego, CA, USA).

Assay [4] relates to T. b. brucei Lister 427 bloodstream forms. Kind of assay: T. brucei bloodstream form viability assay (SYBR Green). The assay is classed as cell-based, Trypanosoma brucei. The note with it: Trypanosoma brucei; bloodstream forms, 72 h. As to the method:
Bloodstream forms of T. b. brucei Lister 427 were cultured in complete HMI-9 medium in T25 suspension culture flasks (Thermo Scientific, Cat. 12-566-84) and maintained at 37 °C and 5% CO2. Trypanosomes were kept in log-phase growth and passaged every 48 h. […] Pentamidine were used as a positive control for T. brucei assay. Compounds were diluted with fresh HMI-9 medium (99 µL/well). Parasites in log-phase were suspended at 2 × 10^5 parasites/mL in HMI-9 medium and then added to each well (100 µL) to give 2 × 10^4 trypanosomes/well. Assay plates were incubated at 37 °C and 5% CO2 for 72 h. Parasite lysate was obtained by addition of 50 µL/well of lysis solution (0.012% saponin, 0.12% Triton X-100, 7.5 mM ETDA, 30 mM Tris, pH 7.5) containing 0.3 µL/mL SYBR Green I (10,000× in DMSO; Invitrogen, Carlsbad, CA, USA). Assay plates were incubated in the dark for 1 h at room temperature. Fluorescence was measured at 485 nm excitation and 535 nm emission wavelengths using an EnVision multilabel plate reader (PerkinElmer, Waltham, MA, USA). In each assay plate, parasite viability was normalized relative to positive (pentamidine) and negative (0.5% DMSO) controls in each assay plate. Assays were performed in biological and technical duplicates, and dose–response and EC50 data were generated with GraphPad Prism 9 using a sigmoidal four parameter logistic curve.

For assay [5], the system named is E. histolytica HM1:IMSS trophozoites. Kind of assay: E. histolytica trophozoite viability assay (CellTiter-Glo). The note with it: Entamoeba histolytica, 48 h. The assay is classed as cell-based, Entamoeba histolytica. As to the method:
Trophozoites of E. histolytica HM1:IMSS were maintained in vitro as described in TYI-S-33 medium supplemented with penicillin (100 U/mL) and streptomycin (100 µg/mL). Test compounds were serially diluted and transferred to a white solid bottomed 96-well tissue culture plate (E&K Scientific, Swedesboro, NJ, USA) followed by addition of 5000 E. histolytica trophozoites per well for a final volume of 100 µL TYI-S-33 medium and a final concentration of compounds ranging from 50 to 0.39 µM. Metronidazole were used as positive control and assay plates were incubated for 48 h at 37 °C. The plates maintained kept anaerobically using the GasPak EZ Anaerobic Gas Generating Pouch System (VWR). Parasite viability was measured in triplicate using the CellTiter-Glo luminescence kit (Promega G9243) in an Envision plate reader (Perkin Elmer, Waltham, MA, USA). EC50 values were obtained using GraphPad Prism 9 Software.

Assay [6] deals with G. lamblia (WB strain) trophozoites. As to the kind of experiment: G. lamblia trophozoite viability assay (CellTiter-Glo). The assay is classed as cell-based, Giardia lamblia. To be noted: Giardia duodenalis, 48 h. As to the method:
Trophozoites of G. lamblia (WB strain) were maintained in vitro as described in TYI-S-33 medium supplemented with penicillin (100 U/mL) and streptomycin (100 µg/mL). Cells were harvested during the logarithmic phase of the growth for antiparasitic assessment. Test compounds were serially diluted and transferred to a white solid bottomed 96-well tissue culture plate (E&K Scientific, Swedesboro, NJ, USA) followed by addition of 5000 G. lamblia trophozoites for a final volume of 100 µL of TYI-S-33 medium and a final concentration of compounds ranging from 50.0 to 0.39 µM. Metronidazole was used as a positive control and assay plates were incubated for 48 h at 37 °C in the GasPak EZ Anaerobic Gas Generating Pouch System (VWR). Parasite viability was measured in triplicate using the CellTiter-Glo luminescence kit in an Envision plate reader. EC50 values were obtained using the GraphPad Prism 9 Software.

Structures are written as SMILES. pEC50, pIC50: −log10 of the molar value.

As to `O=C(C1CCCCC1)N1CC(=O)N2CCc3ccccc3C2C1` (stereo not shown) [Praziquantel, praziquantel, reference compound], in the assay on S. mansoni, adult worm, the “S. mansoni, adult worm: least concentration at which a severity score of 4 was recorded” value is 1.25 µM.

For the compound `O=C(Cn1ccnc1[N+](=O)[O-])NCc1ccccc1` [Benznidazole, benznidazole, reference compound], the negative logarithm of the EC50 (pEC50) (commonly the negative decadic logarithm of the EC50, by convention in mol/L) in assay [1] is 5.33.

With `C[C@@H]1[C@H](O)[C@@H](C)/C=C/C=C/C=C/C=C/C=C/C=C/C=C/[C@H](O[C@@H]2O[C@H](C)[C@@H](O)[C@H](N)[C@@H]2O)C[C@@H]2O[C@](O)(C[C@@H](O)C[C@@H](O)[C@H](O)CC[C@@H](O)C[C@@H](O)CC(=O)O[C@H]1C)C[C@H](O)[C@H]2C(=O)O` [AmpB, amphotericin B, reference compound], the pEC50 in assay [2] is 7.05. In assay [3], the pIC50 – broadly, −log10 of the IC50, conventionally taken in molar units – was 6.13.

Turning to `N=C(N)c1ccc(OCCCCCOc2ccc(C(=N)N)cc2)cc1` [Pentamidine, pentamidine, reference compound], the pEC50 in assay [4] is 8.00.

For the compound `Cc1ncc([N+](=O)[O-])n1CCO` [Metronidazole, metronidazole, reference compound], the pEC50 in assay [5] was 5.36; in assay [6] it was 5.24.
